# Test system: adult human mesangial cells
# Test: Renin-induced TGFβ and fibronectin production by adult human mesangial cells (ELISA)
# Format: cell-based
# Conditions: 10^−5 M inhibitor added at zero time with 10^−7 M human recombinant renin, adult cells, FIG. 7
# Method: Primary cultures of adult human mesangial cells were grown from human nephrectomy tissues using standard methods. Cells were passaged 4-7 times and then plated (3,000 cell/cm^2) in 12 well plates in 2 ml of medium (Mesangial Basal Medium (Clonetics Corp.) containing 5% FCS, 10 μg/ml penicillin and 100 μg/ml streptomycin) and allowed to grow to 70% confluency for 48 hours at 37EC, 5% CO2. Cultures were washed three times using sterile phosphate buffered saline at room temperature and then 2 ml/well of serum free MBM medium to induce quiescence. After 48 hours, the serum-free medium was removed and 2 ml/well of fresh serum-free medium was added for 24 hours. Human recombinant renin (HrRenin, Hoffman-La Roche Ltd., Basel, Switzerland) in concentrations from 10^−6 to 10^−12 M was added to each well for 24 hours. A blank (no HrRenin) was used as a control. Cells and supernatants were harvested by centrifugation after 24 hrs of culture and frozen at ^−70EC until analysis.
# The total production and release of TGFβ into the culture supernatant was measured using an ELISA kit (R & D Systems). Induction of the matrix protein fibronectin (Fn) in the supernatant was measured using anti-fibronectin antibodies in an ELISA to provide further confirmation of induction of TGFβ. Renin-induced induction of TGFβ, fibronectin and PAI-1 mRNA were measured over time using semi-quantitative RT-PCR in a multiplex system where multiple cDNAs are amplified simultaneously according to Dostal et al., Anal. Biochem. 223:239-250 (1994), incorporated by reference herein Determinations were done in triplicate mesangial cell cultures.
# Renin inhibitor Ro42-5892 (Hoffman-LaRoche, Basel, Switzerland), Losartan™ (Merck Pharmaceuticals, West Point, Pa.), Enalapril™ (Sigma Chemical Co., St. Louis, Mo., Prod. No. E6888), or TGFβ1 neutralizing antibody (R & D Systems) were added in the amounts indicated below to separate wells in triplicate to block the renin cascade at different sites after stimulation by renin: • 10^−5 M Renin Inhibitor R042-5892 (Hoffman-LaRoche) • 10^−5 M Enalapril™ (Sigma Chemical Co., St. Louis, Mo.) • 10^−5 M Losartan™ (Merck Pharmaceuticals, West Point, Pa.) • Controls included neutralizing antibody to TGFβ (ATG) and control IgG (TgG)
# These inhibitors were added at zero time with 10^−7 M human recombinant renin (Hoffman-LaRoche).
structure (smiles),measurement,value
CCOC(=O)[C@H](CCc1ccccc1)N[C@@H](C)C(=O)N1CCC[C@H]1C(=O)O [enalapril],renin-induced increase in TGFβ production,does not reduce the renin-induced increase in TGFβ production
